The record followed here is ChEMBL document CHEMBL1156903, “Synthesis of bisboron compounds and their strong inhibitory activity on store-operated calcium entry” (Bioorg Med Chem Lett, 2010).

The nature of the assay: Inhibition of thapsigargin-induced SOCE channel in fura-2 loaded human Jarkart T cells in presence of 2 mM calcium. The note with it: Jurkat.
A word on the IC50: it is the midpoint of a concentration-inhibition curve. As for `NCCOB(c1ccccc1)c1ccccc1`, the IC50 was found to be 15000 nM.

In the case of `NCCOB(c1ccccc1)c1cccc(COCc2cccc(B(OCCN)c3ccccc3)c2)c1`, the IC50 came to 320 nM.

Consider `NCCOB(c1ccccc1)c1ccc(Oc2ccc(B(OCCN)c3ccccc3)cc2)cc1`, for which the IC50 came out at 410 nM.

With `NCCOB(c1ccccc1)c1ccc(CCOCc2ccc(B(OCCN)c3ccccc3)cc2)cc1`, the IC50 amounted to 310 nM.

With `Cc1ccc(B(OCCN)c2ccc(Oc3ccc(B(OCCN)c4ccc(C)c(Cl)c4)cc3)cc2)cc1Cl`, the concentration for half-maximal inhibition (IC50) came out at 640 nM.

`NCCOB(c1ccccc1)c1ccc(COCc2ccc(B(OCCN)c3ccccc3)cc2)cc1`: the IC50 was determined as 430 nM.

Take `NCCOB(c1ccccc1)c1ccc(-c2ccc(B(OCCN)c3ccccc3)cc2)cc1`: the IC50 was found to be 450 nM.

As for `NCCOB(c1ccccc1)c1cccc(COCc2cccc(Oc3ccccc3)c2)c1`, the IC50 was found to be 1900 nM.
